Measurements reported in publication PMC7407272, “Induction of Lysosome Membrane Permeabilization as a Therapeutic Strategy to Target Pancreatic Cancer Stem Cells” (Cancers, 2020).

How the values were obtained:
Experiment in all cases: KINOMEscan
ABL1(F317L)-nonP = molecular target: T1, ABL1(F317L)-nonP (Homo sapiens, UniProt P00519, F317L); assay type: binding; settings: read-out: % Ctrl
T1 construct: purchased DiscoveRx KINOMEscan

FLT1 = molecular target: T2, FLT1 (Homo sapiens, UniProt P17948); assay type: binding; settings: read-out: % Ctrl
T2 construct: purchased DiscoveRx KINOMEscan

AKT1 = molecular target: T3, AKT1 (Homo sapiens, UniProt P31749); assay type: binding; settings: read-out: % Ctrl
T3 construct: purchased DiscoveRx KINOMEscan

GRK4 = molecular target: T4, GRK4 (Homo sapiens, UniProt P32298); assay type: binding; settings: read-out: % Ctrl
T4 construct: purchased DiscoveRx KINOMEscan

PIP5K1A = molecular target: T5, PIP5K1A (Homo sapiens, UniProt Q99755); assay type: binding; settings: read-out: % Ctrl
T5 construct: purchased DiscoveRx KINOMEscan

AMPK-alpha2 = molecular target: T6, AMPK-alpha2 (Homo sapiens, UniProt P54646); assay type: binding; settings: read-out: % Ctrl
T6 construct: purchased DiscoveRx KINOMEscan

ANKK1 = molecular target: T7, ANKK1 (Homo sapiens, UniProt Q8NFD2); assay type: binding; settings: read-out: % Ctrl
T7 construct: purchased DiscoveRx KINOMEscan

PKN2 = molecular target: T8, PKN2 (Homo sapiens, UniProt Q16513); assay type: binding; settings: read-out: % Ctrl
T8 construct: purchased DiscoveRx KINOMEscan

PLK2 = molecular target: T9, PLK2 (Homo sapiens, UniProt Q9NYY3); assay type: binding; settings: read-out: % Ctrl
T9 construct: purchased DiscoveRx KINOMEscan

PLK3 = molecular target: T10, PLK3 (Homo sapiens, UniProt Q9H4B4); assay type: binding; settings: read-out: % Ctrl
T10 construct: purchased DiscoveRx KINOMEscan

BMPR1B = molecular target: T11, BMPR1B (Homo sapiens, UniProt O00238); assay type: binding; settings: read-out: % Ctrl
T11 construct: purchased DiscoveRx KINOMEscan

BRAF = molecular target: T12, BRAF (Homo sapiens, UniProt P15056); assay type: binding; settings: read-out: % Ctrl
T12 construct: purchased DiscoveRx KINOMEscan

CAMK1 = molecular target: T13, CAMK1 (Homo sapiens, UniProt Q14012); assay type: binding; settings: read-out: % Ctrl
T13 construct: purchased DiscoveRx KINOMEscan

JNK1 = molecular target: T14, JNK1 (Homo sapiens, UniProt P45983); assay type: binding; settings: read-out: % Ctrl
T14 construct: purchased DiscoveRx KINOMEscan

CAMK4 = molecular target: T15, CAMK4 (Homo sapiens, UniProt Q16566); assay type: binding; settings: read-out: % Ctrl
T15 construct: purchased DiscoveRx KINOMEscan

LATS2 = molecular target: T16, LATS2 (Homo sapiens, UniProt Q9NRM7); assay type: binding; settings: read-out: % Ctrl
T16 construct: purchased DiscoveRx KINOMEscan

RIPK1 = molecular target: T17, RIPK1 (Homo sapiens, UniProt Q13546); assay type: binding; settings: read-out: % Ctrl
T17 construct: purchased DiscoveRx KINOMEscan

RIPK2 = molecular target: T18, RIPK2 (Homo sapiens, UniProt O43353); assay type: binding; settings: read-out: % Ctrl
T18 construct: purchased DiscoveRx KINOMEscan

MAP3K1 = molecular target: T19, MAP3K1 (Homo sapiens, UniProt Q13233); assay type: binding; settings: read-out: % Ctrl
T19 construct: purchased DiscoveRx KINOMEscan

RSK2(KD1-N-t.) = molecular target: T20, RSK2(KD1-N-t.) (Homo sapiens, UniProt P51812); assay type: binding; settings: read-out: % Ctrl
T20 construct: RSK2(KD1-N-t.); purchased DiscoveRx KINOMEscan

RSK4(KD1-N-t.) = molecular target: T21, RSK4(KD1-N-t.) (Homo sapiens, UniProt Q9UK32); assay type: binding; settings: read-out: % Ctrl
T21 construct: RSK4(KD1-N-t.); purchased DiscoveRx KINOMEscan

CLK2 = molecular target: T22, CLK2 (Homo sapiens, UniProt P49760); assay type: binding; settings: read-out: % Ctrl
T22 construct: purchased DiscoveRx KINOMEscan

CSNK1A1L = molecular target: T23, CSNK1A1L (Homo sapiens, UniProt Q8N752); assay type: binding; settings: read-out: % Ctrl
T23 construct: purchased DiscoveRx KINOMEscan

MAST1 = molecular target: T24, MAST1 (Homo sapiens, UniProt Q9Y2H9); assay type: binding; settings: read-out: % Ctrl
T24 construct: purchased DiscoveRx KINOMEscan

CSNK1E = molecular target: T25, CSNK1E (Homo sapiens, UniProt P49674); assay type: binding; settings: read-out: % Ctrl
T25 construct: purchased DiscoveRx KINOMEscan

MEK6 = molecular target: T26, MEK6 (Homo sapiens, UniProt P52564); assay type: binding; settings: read-out: % Ctrl
T26 construct: purchased DiscoveRx KINOMEscan

STK33 = molecular target: T27, STK33 (Homo sapiens, UniProt Q9BYT3); assay type: binding; settings: read-out: % Ctrl
T27 construct: purchased DiscoveRx KINOMEscan

MINK = molecular target: T28, MINK (Homo sapiens, UniProt Q8N4C8); assay type: binding; settings: read-out: % Ctrl
T28 construct: purchased DiscoveRx KINOMEscan

MKK7 = molecular target: T29, MKK7 (Homo sapiens, UniProt O14733); assay type: binding; settings: read-out: % Ctrl
T29 construct: purchased DiscoveRx KINOMEscan

MLCK = molecular target: T30, MLCK (Homo sapiens, UniProt Q32MK0); assay type: binding; settings: read-out: % Ctrl
T30 construct: purchased DiscoveRx KINOMEscan

MLK3 = molecular target: T31, MLK3 (Homo sapiens, UniProt Q16584); assay type: binding; settings: read-out: % Ctrl
T31 construct: purchased DiscoveRx KINOMEscan

DRAK2 = molecular target: T32, DRAK2 (Homo sapiens, UniProt O94768); assay type: binding; settings: read-out: % Ctrl
T32 construct: purchased DiscoveRx KINOMEscan

TGFBR1 = molecular target: T33, TGFBR1 (Homo sapiens, UniProt P36897); assay type: binding; settings: read-out: % Ctrl
T33 construct: purchased DiscoveRx KINOMEscan

MST1 = molecular target: T34, MST1 (Homo sapiens, UniProt Q13043); assay type: binding; settings: read-out: % Ctrl
T34 construct: purchased DiscoveRx KINOMEscan

MST1R = molecular target: T35, MST1R (Homo sapiens, UniProt Q04912); assay type: binding; settings: read-out: % Ctrl
T35 construct: purchased DiscoveRx KINOMEscan

EGFR(L747-T751del,Sins) = assay type: binding, human; settings: 1 µM
EPHA2 = molecular target: T36, EPHA2 (Homo sapiens, UniProt P29317); assay type: binding; settings: read-out: % Ctrl
T36 construct: purchased DiscoveRx KINOMEscan

NEK7 = molecular target: T37, NEK7 (Homo sapiens, UniProt Q8TDX7); assay type: binding; settings: read-out: % Ctrl
T37 construct: purchased DiscoveRx KINOMEscan

ULK3 = molecular target: T38, ULK3 (Homo sapiens, UniProt Q6PHR2); assay type: binding; settings: read-out: % Ctrl
T38 construct: purchased DiscoveRx KINOMEscan

NIK = molecular target: T39, NIK (Homo sapiens, UniProt Q99558); assay type: binding; settings: read-out: % Ctrl
T39 construct: purchased DiscoveRx KINOMEscan

EPHB4 = molecular target: T40, EPHB4 (Homo sapiens, UniProt P54760); assay type: binding; settings: read-out: % Ctrl
T40 construct: purchased DiscoveRx KINOMEscan

WNK3 = molecular target: T41, WNK3 (Homo sapiens, UniProt Q9BYP7); assay type: binding; settings: read-out: % Ctrl
T41 construct: purchased DiscoveRx KINOMEscan

WNK4 = molecular target: T42, WNK4 (Homo sapiens, UniProt Q96J92); assay type: binding; settings: read-out: % Ctrl
T42 construct: purchased DiscoveRx KINOMEscan

YANK3 = molecular target: T43, YANK3 (Homo sapiens, UniProt Q86UX6); assay type: binding; settings: read-out: % Ctrl
T43 construct: purchased DiscoveRx KINOMEscan

T9 sequence (Q9NYY3 whole entry): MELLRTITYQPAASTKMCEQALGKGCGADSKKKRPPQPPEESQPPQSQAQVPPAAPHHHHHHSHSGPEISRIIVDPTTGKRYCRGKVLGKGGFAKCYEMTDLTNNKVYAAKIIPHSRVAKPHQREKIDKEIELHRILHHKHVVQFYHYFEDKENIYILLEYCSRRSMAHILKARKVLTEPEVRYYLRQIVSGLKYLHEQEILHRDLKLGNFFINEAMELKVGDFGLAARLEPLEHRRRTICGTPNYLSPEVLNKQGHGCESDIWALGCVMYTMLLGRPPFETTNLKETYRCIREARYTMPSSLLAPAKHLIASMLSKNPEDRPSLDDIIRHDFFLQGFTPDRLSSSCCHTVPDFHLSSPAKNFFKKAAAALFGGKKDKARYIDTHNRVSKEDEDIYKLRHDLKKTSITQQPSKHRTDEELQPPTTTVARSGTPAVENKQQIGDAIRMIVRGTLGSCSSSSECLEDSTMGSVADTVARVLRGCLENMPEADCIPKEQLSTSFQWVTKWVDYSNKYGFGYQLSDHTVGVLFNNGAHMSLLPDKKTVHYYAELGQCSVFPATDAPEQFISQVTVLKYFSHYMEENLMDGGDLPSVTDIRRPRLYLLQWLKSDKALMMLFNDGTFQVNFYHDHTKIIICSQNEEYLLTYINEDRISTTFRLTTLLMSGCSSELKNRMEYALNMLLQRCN
T24 sequence (Q9Y2H9 whole entry): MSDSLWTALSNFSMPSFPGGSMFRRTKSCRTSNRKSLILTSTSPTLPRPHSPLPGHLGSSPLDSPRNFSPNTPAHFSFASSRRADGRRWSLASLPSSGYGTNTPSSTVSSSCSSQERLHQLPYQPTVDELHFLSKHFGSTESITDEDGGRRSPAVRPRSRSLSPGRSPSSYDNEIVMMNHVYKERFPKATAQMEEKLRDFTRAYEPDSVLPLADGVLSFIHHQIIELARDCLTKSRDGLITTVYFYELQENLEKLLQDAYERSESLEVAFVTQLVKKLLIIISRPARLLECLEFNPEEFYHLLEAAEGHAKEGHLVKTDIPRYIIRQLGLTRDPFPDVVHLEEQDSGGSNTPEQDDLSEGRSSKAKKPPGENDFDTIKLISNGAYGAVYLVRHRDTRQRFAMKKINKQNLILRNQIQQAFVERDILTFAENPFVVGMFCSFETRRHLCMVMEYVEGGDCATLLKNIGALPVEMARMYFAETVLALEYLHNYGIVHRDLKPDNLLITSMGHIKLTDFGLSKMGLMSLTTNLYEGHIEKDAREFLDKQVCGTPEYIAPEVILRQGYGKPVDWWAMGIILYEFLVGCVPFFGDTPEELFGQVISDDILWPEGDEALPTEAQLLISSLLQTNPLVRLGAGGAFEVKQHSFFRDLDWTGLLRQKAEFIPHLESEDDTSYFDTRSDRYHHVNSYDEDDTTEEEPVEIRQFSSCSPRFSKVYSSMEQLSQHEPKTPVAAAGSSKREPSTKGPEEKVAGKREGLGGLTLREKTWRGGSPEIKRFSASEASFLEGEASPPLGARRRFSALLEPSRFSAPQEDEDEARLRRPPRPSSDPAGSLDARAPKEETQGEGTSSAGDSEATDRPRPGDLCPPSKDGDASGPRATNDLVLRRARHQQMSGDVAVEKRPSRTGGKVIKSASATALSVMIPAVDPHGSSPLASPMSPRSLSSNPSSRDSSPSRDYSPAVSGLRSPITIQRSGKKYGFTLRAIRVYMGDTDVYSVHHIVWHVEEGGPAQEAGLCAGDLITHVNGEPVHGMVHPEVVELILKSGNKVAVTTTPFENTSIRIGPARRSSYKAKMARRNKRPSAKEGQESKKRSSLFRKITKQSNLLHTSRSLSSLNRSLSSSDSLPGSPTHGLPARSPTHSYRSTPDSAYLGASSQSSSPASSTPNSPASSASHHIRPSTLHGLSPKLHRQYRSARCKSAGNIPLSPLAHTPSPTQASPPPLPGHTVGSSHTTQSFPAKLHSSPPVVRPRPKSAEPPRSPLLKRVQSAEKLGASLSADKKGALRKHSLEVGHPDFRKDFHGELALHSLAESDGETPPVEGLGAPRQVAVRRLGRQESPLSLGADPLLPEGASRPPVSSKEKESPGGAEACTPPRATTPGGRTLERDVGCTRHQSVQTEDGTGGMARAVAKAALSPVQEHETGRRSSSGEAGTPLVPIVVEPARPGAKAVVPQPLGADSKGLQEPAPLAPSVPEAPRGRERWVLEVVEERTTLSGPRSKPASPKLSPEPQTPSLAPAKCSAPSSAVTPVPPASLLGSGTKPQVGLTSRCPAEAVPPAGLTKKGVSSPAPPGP
T23 sequence (Q8N752 whole entry): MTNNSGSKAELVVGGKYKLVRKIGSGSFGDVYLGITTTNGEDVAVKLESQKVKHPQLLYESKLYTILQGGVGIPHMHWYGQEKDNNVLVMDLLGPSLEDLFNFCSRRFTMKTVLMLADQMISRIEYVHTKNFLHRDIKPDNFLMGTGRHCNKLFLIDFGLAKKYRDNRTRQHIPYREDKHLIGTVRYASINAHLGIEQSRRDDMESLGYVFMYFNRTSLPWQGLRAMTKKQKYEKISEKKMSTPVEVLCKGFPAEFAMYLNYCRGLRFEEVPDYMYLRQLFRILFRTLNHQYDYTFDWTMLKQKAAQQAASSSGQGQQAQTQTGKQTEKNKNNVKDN
T25 sequence (P49674 whole entry): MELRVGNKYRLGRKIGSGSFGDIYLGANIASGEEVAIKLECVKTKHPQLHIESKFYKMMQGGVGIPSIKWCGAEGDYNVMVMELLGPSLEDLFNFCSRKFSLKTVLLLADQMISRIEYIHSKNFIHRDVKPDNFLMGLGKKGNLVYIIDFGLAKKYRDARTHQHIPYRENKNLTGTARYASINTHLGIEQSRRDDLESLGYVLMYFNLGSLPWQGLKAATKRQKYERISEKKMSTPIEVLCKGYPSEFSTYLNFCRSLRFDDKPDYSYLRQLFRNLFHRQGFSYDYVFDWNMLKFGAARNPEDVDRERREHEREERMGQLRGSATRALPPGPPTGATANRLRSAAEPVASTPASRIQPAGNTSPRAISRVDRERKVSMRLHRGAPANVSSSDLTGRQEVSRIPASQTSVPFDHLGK
T18 sequence (O43353 whole entry): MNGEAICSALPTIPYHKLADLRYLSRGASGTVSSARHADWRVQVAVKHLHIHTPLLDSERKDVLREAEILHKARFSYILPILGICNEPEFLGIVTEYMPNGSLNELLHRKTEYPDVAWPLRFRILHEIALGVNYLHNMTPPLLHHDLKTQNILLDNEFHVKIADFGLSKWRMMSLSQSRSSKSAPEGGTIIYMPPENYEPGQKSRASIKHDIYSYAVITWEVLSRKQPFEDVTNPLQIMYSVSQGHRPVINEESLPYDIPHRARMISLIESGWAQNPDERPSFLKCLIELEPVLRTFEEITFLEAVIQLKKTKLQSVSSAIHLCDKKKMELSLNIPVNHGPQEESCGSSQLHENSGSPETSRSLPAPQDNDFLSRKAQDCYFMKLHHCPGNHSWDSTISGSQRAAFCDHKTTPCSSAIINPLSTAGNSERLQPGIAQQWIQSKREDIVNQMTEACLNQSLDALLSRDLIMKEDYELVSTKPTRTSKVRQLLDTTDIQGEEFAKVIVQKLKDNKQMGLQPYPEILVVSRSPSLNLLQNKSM
T29 sequence (O14733 whole entry): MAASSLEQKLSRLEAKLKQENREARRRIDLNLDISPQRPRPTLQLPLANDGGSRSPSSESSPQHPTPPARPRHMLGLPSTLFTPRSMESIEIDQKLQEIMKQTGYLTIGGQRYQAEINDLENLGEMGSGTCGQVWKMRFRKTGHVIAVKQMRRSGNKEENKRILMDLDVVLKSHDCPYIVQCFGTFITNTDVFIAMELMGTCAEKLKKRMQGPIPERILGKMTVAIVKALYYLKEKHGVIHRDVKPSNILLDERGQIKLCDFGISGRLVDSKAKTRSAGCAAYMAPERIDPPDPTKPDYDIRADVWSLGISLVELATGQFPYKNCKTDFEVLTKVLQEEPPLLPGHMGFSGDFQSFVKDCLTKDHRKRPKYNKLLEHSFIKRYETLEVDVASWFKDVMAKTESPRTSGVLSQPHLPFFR
T26 sequence (P52564 whole entry): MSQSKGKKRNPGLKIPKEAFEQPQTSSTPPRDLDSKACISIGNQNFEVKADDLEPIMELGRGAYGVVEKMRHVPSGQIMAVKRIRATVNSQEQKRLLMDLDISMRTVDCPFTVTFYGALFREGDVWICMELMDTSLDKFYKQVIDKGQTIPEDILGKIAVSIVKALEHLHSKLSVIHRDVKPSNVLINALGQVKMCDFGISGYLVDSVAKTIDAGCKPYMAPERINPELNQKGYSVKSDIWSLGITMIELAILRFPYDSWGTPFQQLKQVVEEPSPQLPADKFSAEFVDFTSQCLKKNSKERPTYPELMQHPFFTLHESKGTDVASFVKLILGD
T11 sequence (O00238 14-502): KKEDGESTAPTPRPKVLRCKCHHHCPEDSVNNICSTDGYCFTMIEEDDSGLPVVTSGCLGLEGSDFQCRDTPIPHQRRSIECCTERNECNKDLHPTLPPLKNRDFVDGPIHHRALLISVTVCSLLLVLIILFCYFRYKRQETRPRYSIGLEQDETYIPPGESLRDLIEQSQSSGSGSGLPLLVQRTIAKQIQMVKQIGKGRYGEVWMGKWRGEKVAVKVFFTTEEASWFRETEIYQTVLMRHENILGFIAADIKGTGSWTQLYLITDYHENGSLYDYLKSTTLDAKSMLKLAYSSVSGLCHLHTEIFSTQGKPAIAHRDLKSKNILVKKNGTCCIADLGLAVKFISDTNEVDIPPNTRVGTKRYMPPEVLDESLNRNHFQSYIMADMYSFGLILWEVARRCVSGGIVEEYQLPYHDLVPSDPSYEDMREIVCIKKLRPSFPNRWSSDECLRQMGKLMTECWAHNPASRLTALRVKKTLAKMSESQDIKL

CN1CCC(CNc2ccc3ncc(C(=O)Nc4cccc(OC(F)(F)F)c4)n3n2)CC1 [Cpd 2]
remaining binding at 1 µM (ABL1(F317L)-nonP): 66% | remaining binding at 1 µM (FLT1): 100% | remaining binding at 1 µM (AKT1): 100% | remaining binding at 1 µM (GRK4): 93% | remaining binding at 1 µM (PIP5K1A): 100% | remaining binding at 1 µM (AMPK-alpha2): 100% | remaining binding at 1 µM (ANKK1): 94% | remaining binding at 1 µM (PKN2): 79% | remaining binding at 1 µM (PLK2): 91% | remaining binding at 1 µM (PLK3): 97% | remaining binding at 1 µM (BMPR1B): 99% | remaining binding at 1 µM (BRAF): 100% | remaining binding at 1 µM (CAMK1): 98% | remaining binding at 1 µM (JNK1): 92% | remaining binding at 1 µM (CAMK4): 100% | remaining binding at 1 µM (LATS2): 99% | remaining binding at 1 µM (RIPK1): 100% | remaining binding at 1 µM (RIPK2): 100% | remaining binding at 1 µM (MAP3K1): 100% | remaining binding at 1 µM (RSK2(KD1-N-t.)): 89% | remaining binding at 1 µM (RSK4(KD1-N-t.)): 92% | remaining binding at 1 µM (CLK2): 81% | remaining binding at 1 µM (CSNK1A1L): 95% | remaining binding at 1 µM (MAST1): 59% | remaining binding at 1 µM (CSNK1E): 95% | remaining binding at 1 µM (MEK6): 98% | remaining binding at 1 µM (STK33): 100% | remaining binding at 1 µM (MINK): 94% | remaining binding at 1 µM (MKK7): 100% | remaining binding at 1 µM (MLCK): 100% | remaining binding at 1 µM (MLK3): 100% | remaining binding at 1 µM (DRAK2): 80% | remaining binding at 1 µM (TGFBR1): 100% | remaining binding at 1 µM (MST1): 100% | remaining binding at 1 µM (MST1R): 100% | % Ctrl (EGFR(L747-T751del,Sins)): 87% | remaining binding at 1 µM (EPHA2): 100% | remaining binding at 1 µM (NEK7): 92% | remaining binding at 1 µM (ULK3): 78% | remaining binding at 1 µM (NIK): 100% | remaining binding at 1 µM (EPHB4): 93% | remaining binding at 1 µM (WNK3): 99% | remaining binding at 1 µM (WNK4): 100% | remaining binding at 1 µM (YANK3): 99%
